In US20060057092A1, “Cosmetic use of a composition including an ascorbic acid compound and polyamide particles” (L'OREAL, priority 2004, published 2006):

Test system: immortalized human sebocytes resulting from the SZ95 line
Experiment: Lipogenesis in cultured immortalized human sebocytes (Nile Red fluorescence, neutral lipids)
Format: cell-based
Details: for Inhibition of lipogenesis: Effectiveness (% with respect to the control): 0.0004% in culture medium, 2 days of treatment, neutral lipids
Method: Various ascorbic acid compounds were tested on a model of cultured immortalized human sebocytes resulting from the SZ95 line described in Zouboulis, C. C., Seltmann, H., Neitzel, H. and Orfanos, C. E., Establishment and Characterization of an Immortalized Human Sebaceous Gland Cell Line, J. Invest. Dermatol., 113, 1011-1020 (1999).
These compounds were composed of L-ascorbic acid 2-O-α-D-glucopyranoside (hereinafter ascorbyl glucoside), of ascorbic acid, of ascorbyl palmitate and of magnesium ascorbyl phosphate.
The test consisted in measuring the amount of lipids produced by the sebocytes of the line (at confluence) in the presence or absence of active agents diluted in the culture medium. After 2 days of treatment, the adherent cells are treated with Nile Red (1 μg/ml). The content of lipids is subsequently quantified by measuring the fluorescence of the dye (two excitation/emission pairs: 485-540 nm for the neutral lipids and 540-620 nm for the nonneutral lipids). The results are given for the neutral lipids (components of the sebum).
The experiment is carried out in octuplicate (tested and control products) in a 96-well plate.

| Compound | Inhibition of lipogenesis: Effectiveness (% with respect to the control) | further results |
| --- | --- | --- |
| O=C1O[C@H]([C@@H](O)CO)C(O)=C1O [Ascorbic acid, ascorbic acid] | ns | – |
| O=C1O[C@H]([C@@H](O)CO)C(O)=C1O[C@H]1O[C@H](CO)[C@@H](O)[C@H](O)[C@H]1O [Ascorbyl glucoside, L-ascorbic acid 2-O-α-D-glucopyranoside] | – | effective concentration for reducing lipogenesis relative to ascorbic acid (comparable level of inhibition) (SZ95 sebocytes): ten times lower |
| CCCCCCCCCCCCCCCC(=O)OC[C@H](O)[C@H]1OC(=O)C(O)=C1O [Ascorbyl palmitate, ascorbyl palmitate] | – | effect on lipogenesis (in words) (SZ95 sebocytes): stimulating (and not inhibiting) effect |
| O=C1O[C@H]([C@@H](O)CO)C([O-])=C1OP(=O)([O-])[O-].O=C1O[C@H]([C@@H](O)CO)C([O-])=C1OP(=O)([O-])[O-].[Mg+2].[Mg+2].[Mg+2] [Magnesium ascorbyl phosphate, magnesium ascorbyl phosphate] | ns | – |
